Reference: the supplement of paper PMC10307832

Assays:
Assay in all cases: relative viability (nuclei count vs DMSO), 5 days (fraction); higher = more cells survive
[1] = compound: CC1=CC=C(C=C1)C(=O)CN2C3=C(CCCC3)SC2=N [Pifithrin_alpha] + COc1cc2c(Oc3ccc(NC(=O)C4(C(=O)Nc5ccc(F)cc5)CC4)cc3F)ccnc2cc1OCCCN1CCOCC1 [Foretinib] (partner 0.25 µM)
Outline: (§1)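 Lung cancer cell lines were seeded in 1536-well plates and dosed by pin tool the next day, with either a single drug or a fixed anchor-drug dose combined with five library-drug doses (not always all listed) spaced in √10 steps. Five days later, one step fixed the cells and stained their nuclei (final 0.05% Triton X-100, 1% formaldehyde, 1 ug/ml Hoechst), and nuclei were counted on 4× images. Relative viability is the nuclei count in treated wells divided by the count in vehicle wells, and each value is the median of duplicate plates.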

Axitinib + Tozasertib = compound: CNC(=O)c1ccccc1Sc1ccc2c(/C=C/c3ccccn3)n[nH]c2c1 [Axitinib] + Cc1cc(Nc2cc(N3CCN(C)CC3)nc(Sc3ccc(NC(=O)C4CC4)cc3)n2)n[nH]1 [Tozasertib] (partner 0.1 µM)
Outline: as §1

[2] = compound: CC1=CC=C(C=C1)C(=O)CN2C3=C(CCCC3)SC2=N [Pifithrin_alpha] + CC(C)C[C@H](NC(=O)[C@H](Cc1ccccc1)NC(=O)c1cnccn1)B(O)O [Bortezomib] (partner 0.002 µM)
Outline: as §1

Bemcentinib + Vorinostat = compound: Nc1nc(Nc2ccc3c(c2)CC[C@@H](N2CCCC2)CC3)nn1-c1cc2c(nn1)-c1ccccc1CCC2 [Bemcentinib] + O=C(CCCCCCC(=O)Nc1ccccc1)NO [Vorinostat] (partner 1 µM)
Outline: as §1

Cell Line	relative viability ([1]; first compound 1 µM)	relative viability ([1]; first compound 3.162 µM)	relative viability ([1]; first compound 10 µM)	relative viability ([1]; first compound 31.62 µM)	relative viability ([1]; first compound 100 µM)	relative viability (Axitinib + Tozasertib; first compound 0.005 µM)	relative viability (Axitinib + Tozasertib; first compound 0.01581 µM)	relative viability (Axitinib + Tozasertib; first compound 0.05 µM)	relative viability (Axitinib + Tozasertib; first compound 0.1581 µM)	relative viability (Axitinib + Tozasertib; first compound 0.5 µM)	relative viability ([2]; first compound 1 µM)	relative viability ([2]; first compound 3.162 µM)	relative viability ([2]; first compound 10 µM)	relative viability ([2]; first compound 31.62 µM)	relative viability ([2]; first compound 100 µM)	relative viability (Bemcentinib + Vorinostat; first compound 0.04 µM)	relative viability (Bemcentinib + Vorinostat; first compound 0.1265 µM)	relative viability (Bemcentinib + Vorinostat; first compound 0.4 µM)	relative viability (Bemcentinib + Vorinostat; first compound 1.265 µM)	relative viability (Bemcentinib + Vorinostat; first compound 4 µM)
HCC-78	0.592	0.551	0.486	0.467	0.523	0.6	0.493	0.493	0.477	0.446	0.415	0.394	0.472	0.418	0.477	0.456	0.449	0.394	0.514	0.39
HCC-366	0.896	0.906	0.915	–	0.527	0.135	0.116	0.133	0.136	0.142	1.33	0.706	1.07	–	1.1	0.32	0.43	0.441	0.303	0.433
HCC-827	1.01	0.996	0.84	0.597	0.857	0.443	0.417	0.424	0.466	0.449	0.961	1.14	0.987	0.903	0.981	0.79	0.858	0.783	0.361	0.789
HOP-62	1.17	1.16	1.18	1.03	1.19	0.38	0.414	0.343	0.44	0.577	0.92	0.983	0.955	0.514	1.14	0.606	0.738	0.79	0.672	0.623
IA-LM	1.07	0.975	0.469	0.445	0.604	–	–	–	–	–	0.984	0.415	0.281	0.33	0.339	0.968	1.38	0.984	0.965	0.866
LC-2-ad	–	0.902	0.904	–	0.871	0.425	0.479	0.396	0.425	0.53	0.892	1.04	0.976	0.767	0.768	0.705	0.805	0.73	0.726	0.737
LCLC-97TM1	0.954	1.08	0.934	0.496	0.909	0.251	0.271	0.276	0.415	0.393	–	0.596	0.397	–	0.487	0.727	0.703	0.702	0.633	0.829
LK-2	1.18	1.64	1.48	–	1.62	0.176	0.161	0.198	0.162	0.174	–	–	–	–	–	0.497	0.253	0.171	0.281	0.365
NCI-H358	0.773	0.777	0.645	0.467	0.541	0.105	0.0955	0.105	0.101	0.108	–	–	–	–	–	0.665	0.745	0.701	0.806	0.839
NCI-H522	–	–	–	–	–	0.662	0.573	0.46	0.575	0.577	–	–	–	–	–	0.87	0.959	0.859	0.799	0.907
NCI-H1299	1.04	1.14	1.07	0.889	1.07	–	–	–	–	–	1.08	1.02	1.02	0.896	1.03	–	–	–	–	–
NCI-H1395	0.899	0.98	0.975	0.748	0.712	0.739	0.883	0.725	0.682	0.764	–	–	–	–	–	–	0.681	0.674	0.716	0.634
NCI-H1563	0.879	0.912	0.875	0.881	0.81	–	–	–	–	–	0.732	0.697	0.755	0.733	0.78	–	–	–	–	–
NCI-H1623	0.825	0.811	0.759	0.628	0.669	0.457	0.506	0.432	0.498	0.45	–	–	–	–	–	–	–	–	–	–
NCI-H1648	–	–	–	–	–	0.506	0.643	–	0.483	0.602	–	–	–	–	–	0.598	0.362	0.385	0.386	0.457
NCI-H1703	0.285	0.336	0.374	0.34	0.266	–	–	–	–	–	0.416	0.344	0.368	0.288	0.279	–	–	–	–	–
NCI-H1792	–	–	–	–	–	–	–	–	–	–	0.719	0.847	0.666	0.582	0.795	–	–	–	–	–
NCI-H1793	–	0.539	0.61	0.642	0.483	0.311	0.311	0.46	0.346	0.351	–	–	–	–	–	0.63	1.15	0.74	0.461	0.699
NCI-H1944	0.816	0.713	0.732	0.47	0.677	0.238	0.258	0.264	0.263	0.297	–	–	–	–	–	0.521	0.611	0.608	0.527	0.561
NCI-H2170	0.985	1.02	0.988	0.931	0.952	0.72	0.63	0.768	0.774	0.838	–	–	–	–	–	0.732	0.855	0.992	0.745	0.897
NCI-H2342	1.14	1.01	0.953	1.09	1.01	0.618	0.685	0.448	0.593	0.528	–	–	–	–	–	0.833	0.807	0.746	0.678	0.808
SK-MES-1	0.763	0.817	0.857	0.588	0.604	0.996	0.904	0.818	0.947	1.07	–	–	–	–	–	1.1	1.38	1.17	1.23	1.24
SW 900	0.878	0.724	0.836	0.837	0.424	0.84	0.572	0.571	0.639	0.642	–	–	–	–	–	0.461	0.924	0.602	0.303	0.501
